System: KRAS-mutant PDC multicell tumor spheroid viability
Experiment: Anticancer human tumor 521955-158-R2-J5-PDC patient-derived pancreatic carcinoma cell line growth inhibition [KRAS2]
Details: for viability, T/C: stronger effect = lower value
Excerpt: Multicellular complex tumor spheroid response to RAS pathway inhibitors in combination with a targeted agents in patient-derived cell lines with oncogenic KRAS variants from multiple cancer types
A high-throughput screen of multi-cell type tumor spheroids was designed to identify active combinations of targeted small molecules and KRAS pathway inhibitors. Complex spheroids include a stromal component modeled by human endothelial cells (HUVEC) and fibroblasts modeled by human mesenchymal stem cells (MSCs). The concentration ranges selected for each drug and investigational agent were based upon clinically achievable concentrations if the clinical Cmax of the agent was known.
Compounds. The drugs and investigational agents: BI-3406 (NSC825286), BAY-293 (NSC824723), batoprotafib (TNO155; NSC825523), sotorasib (AMG 510; NSC818433), MRTX1257 (NSC819558), elimusertib (BAY 1895344; NSC800525), molibresib (GSK525762; NSC774829), temuterkib (LY3214996; NSC803410), venetoclax (NSC766270), alisertib (NSC759677), olaparib (NSC753686), talazoparib (NSC767125), erdafitinib (NSC781556), ipatasertib (NSC767898), cabozantinib (NSC761068), nintedanib (NSC756659), abemaciclib (NSC768073), docetaxel (NSC628503), trametinib (NSC758246), and sapanisertib (NSC764658) were obtained from the National Cancer Institute (NCI) Developmental Therapeutics Program Chemical Repository. The FDA-approved anticancer drug set is available from the Developmental Therapeutics Program. […] The stock solutions were prepared in dimethyl sulfoxide (DMSO, Sigma-Aldrich, St. Louis, MO, cat. D2650) at 800-fold the tested concentration and stored at -70 degrees C prior to their use. All drugs and investigational agents were tested over a range starting from a high concentration at or near the clinical Cmax and decreasing in half-log increments. If the clinical Cmax for an agent had not been determined, the highest concentration tested was 10 microM.
Cell Culture. All cells were maintained in an incubator at 37 degrees C and 5% CO2 with 95% humidity. The PDC lines were cultured according to standard operating procedures established by the NCI PDMR (https://pdmr.cancer.gov/sops/default.htm). Briefly, all PDCs were thawed and cultured in Matrigel-coated flasks prepared with a working solution of 1X Ham's F-12 nutrient mix, without supplementation (Invitrogen, Waltham, MA, cat. 11765054), 100 U/mL penicillin-streptomycin (Invitrogen, cat. 15140122), and 2.5% Matrigel (Corning Inc., Corning, NY, cat. 354248) for the first three passages. All PDCs were cultured in complete DMEM/F-12 media containing advanced DMEM/F-12 (Invitrogen, cat. 12634028), 4.9% defined fetal bovine serum, heat inactivated (HyClone Laboratories Inc., Logan, UT, cat. SH30070.03HI), 389 ng/mL hydrocortisone (Sigma-Aldrich, cat. H4001), 9.7 ng/mL human EGF recombinant protein (Invitrogen, cat. PHG0313), 23.4 microg/mL adenine (Sigma-Aldrich, cat. A2786), 97.3 U/mL penicillin-streptomycin (Invitrogen, cat. 15140122), 1.9 mM L-glutamine (Invitrogen, cat. 25030081), and 9.7 microM Y-27632 dihydrochloride (Tocris Bioscience, Bristol, United Kingdom, cat. 1254). The PDCs were cultured in complete DMEM/F12 media without 9.7 microM Y-27632 dihydrochloride for at least two passages prior to the screen. The established cell line HOP-62 was cultured in RPMI 1640 medium, HEPES (Invitrogen, cat. 22400105) with 10% defined fetal bovine serum (HyClone Laboratories Inc., cat. SH30070.03) and 2 mM L-glutamine (Invitrogen, cat. 25030081). The pooled donor HUVEC were cultured in endothelial cell growth medium 2 (PromoCell, Heidelberg, Germany, cat. C-22011) and the hMSC were cultured in mesenchymal stem cell growth medium 2 (PromoCell, cat. C-28009). For all experiments, HUVEC and hMSC were used at passages </=5, while the malignant cell lines were used at passages </=15. […]
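Further: viability read after seven days of drug exposure.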

Compound	viability, T/C (compound 0.0316 µM)	viability, T/C (compound 0.1 µM)	viability, T/C (compound 0.316 µM)	viability, T/C (compound 1 µM)	viability, T/C (compound 3.16 µM)	viability, T/C (compound 10 µM)	IC50 (curve of compound)	viability, T/C (compound 0.000316 µM)	viability, T/C (compound 0.001 µM)	viability, T/C (compound 0.00316 µM)	viability, T/C (compound 0.01 µM)	IC50 (compound alone, run of 08/26/2021)	IC50 (compound alone, run of 09/02/2021)
CCNC(=O)CC1N=C(c2ccc(Cl)cc2)c2cc(OC)ccc2-n2c(C)nnc21 (stereo unspecified)	98.9% [middle of 5 runs]	92.1% [middle of 5 runs]	63% [middle of 5 runs]	45% [middle of 5 runs]	37.6% [middle of 5 runs]	34.2% [middle of 5 runs]	692 nM [middle of 5 runs]	–	–	–	–	–	–
CN(C)C/C=C/C(=O)Nc1cc2c(Nc3ccc(F)c(Cl)c3)ncnc2cc1O[C@H]1CCOC1	87.8% [middle of 5 runs]	–	–	–	–	–	> 100 nM	105% [middle of 5 runs]	98.6% [middle of 5 runs]	96.5% [middle of 5 runs]	92.4% [middle of 5 runs]	–	–
CNCc1ccccc1-c1csc(C(C)Nc2nc(C)nc3cc(OC)c(OC)cc23)c1 (stereo unspecified)	–	93.3% [middle of 17 runs]	93.4% [middle of 17 runs]	–	–	0.16% [middle of 15 runs]	–	–	–	–	–	1.68 µM [middle of 5 runs]	1.82 µM [middle of 6 runs]
COC(=O)c1ccc2c(C(=Nc3ccc(N(C)C(=O)CN4CCN(C)CC4)cc3)c3ccccc3)c(O)[nH]c2c1	102% [middle of 5 runs]	105% [middle of 5 runs]	–	–	–	0.29% [middle of 5 runs]	2.06 µM [middle of 5 runs]	–	–	–	–	–	–
COc1cc(Nc2ncc3c(n2)-c2ccc(Cl)cc2C(c2c(F)cccc2OC)=NC3)ccc1C(=O)O	50.2% [middle of 5 runs]	39.8% [middle of 5 runs]	45.3% [middle of 5 runs]	47.9% [middle of 5 runs]	46.5% [middle of 5 runs]	41.2% [middle of 5 runs]	< 31.6 nM	–	–	–	–	–	–
COc1cc(OC)cc(N(CCNC(C)C)c2ccc3ncc(-c4cnn(C)c4)nc3c2)c1	94.3% [middle of 5 runs]	99.1% [middle of 5 runs]	105% [middle of 5 runs]	123% [middle of 5 runs]	–	0.56% [middle of 5 runs]	6.06 µM [middle of 4 runs]	–	–	–	–	–	–
COc1cc2nccc(Oc3ccc(NC(=O)C4(C(=O)Nc5ccc(F)cc5)CC4)cc3)c2cc1OC	99.7% [middle of 5 runs]	98.8% [middle of 4 runs]	103% [middle of 5 runs]	109% [middle of 5 runs]	–	39.7% [middle of 5 runs]	–	–	–	–	–	–	–
Cn1nccc1Nc1nccc(-c2cc3c(s2)C(C)(C)N(CCN2CCOCC2)C3=O)n1	91.2% [middle of 5 runs]	86.3% [middle of 5 runs]	60.6% [middle of 5 runs]	51% [middle of 5 runs]	32.7% [middle of 5 runs]	22.6% [middle of 5 runs]	902 nM [middle of 5 runs]	–	–	–	–	–	–
Cn1ncnc1[C@H]1c2n[nH]c(=O)c3cc(F)cc(c23)N[C@@H]1c1ccc(F)cc1	90% [middle of 5 runs]	82.8% [middle of 5 runs]	–	–	–	–	> 100 nM	104% [middle of 5 runs]	104% [middle of 5 runs]	97.1% [middle of 5 runs]	90.9% [middle of 5 runs]	–	–
O=C(c1cc(Cc2n[nH]c(=O)c3ccccc23)ccc1F)N1CCN(C(=O)C2CC2)CC1	99% [middle of 5 runs]	95.1% [middle of 5 runs]	93.8% [middle of 5 runs]	94.8% [middle of 5 runs]	89.3% [middle of 5 runs]	61% [middle of 5 runs]	> 10000 nM	–	–	–	–	–	–

From PubChem BioAssay AID1963871 (Molecular Pharmacology Branch, DTP, NCI, 2024)
